The values below come from patent US8637563B2, “Non-peptide thrombopoietin receptor agonist in the treatment of cancer and pre-cancerous syndromes” (GlaxoSmithKline LLC, priority 2007, dated 2014).

Common to all, as to type: cell-based
The subject of one experiment is NCI-H460 (NSCLC). Briefly: Solid Tumor Cell Line Proliferation Assay, NCI-H460. The conditions noted are these: Homo sapiens; NCI-H460, 72 hr, Cell Titer Glo. How it is done:
(§1) Cells in log phase growth were seeded in a 96-well plate at 2500 cells/well in 50 uL medium and incubated at 37° C., 5% CO2 overnight. Compound A was diluted in medium and added at 0.1, 0.4, 1, 4, 10 and 40 ug/mL. Following a 72 hr incubation at 37° C., 5% CO2. The CellTiter-Glo Luminescent Cell Viability Assay (ProMega Corp) was performed according to the manufacturer's instructions. Briefly following a 30 min room temperature incubation 100 uL CELLTiter Glo reagent was added to each well and mixed for 2 minutes. Luminescence was recorded following a 10 minute room temperature incubation using a PerkinElmer Microbeta luminescence counter. IC50 was determined by EXCel Fit 4.2.1.

The test system of a further experiment is NCI-H522 (NSCLC). As to the kind of experiment: Solid Tumor Cell Line Proliferation Assay, NCI-H522. As to conditions: Homo sapiens; NCI-H522, 72 hr, Cell Titer Glo. The procedure:
as §1

For a further experiment, the system named is HepG2 cells. As to the kind of experiment: Liver Cancer Assay (CellTiter Glo). The conditions noted are these: Homo sapiens, HepG2, 72 hours, n=4 wells, read-out: IC50, decrease in the number of viable cells. The procedure:
HepG2 is a human hepatocellular carcinoma cell line. Active cell determinations were performed on HepG2 cells by plating 2×10^4 cells/mL in 96-well plates in culture medium containing 10% FBS and incubating overnight in 5% CO2 at 37°. Cells were then treated with Compound A at 0, 0.1, 0.4, 1, 4, 10, 40 ug/mL and incubated for 72 hours. Cell proliferation was measured using the CellTiter Glo (Promega) reagent according to the manufacturer's protocol. Data is the mean of n=4 wells reported as the percent of the control (0 ug/mL of Compound A). Compound A induced a decrease in the number of viable cells with an IC50 of approximately 6 ug/mL.

For another experiment, the system named is NCI-H23 (NSCLC). As to the kind of experiment: Solid Tumor Cell Line Proliferation Assay, NCI-H23. As to conditions: Homo sapiens; NCI-H23, 72 hr, Cell Titer Glo. The procedure:
as §1

In the next experiment the test system is HOP-92 (NSCLC). Briefly: Solid Tumor Cell Line Proliferation Assay, HOP-92. As to conditions: Homo sapiens; HOP-92, 72 hr, Cell Titer Glo. The procedure:
as §1

The subject of the next experiment is EKVX (NSCLC). As to the kind of experiment: Solid Tumor Cell Line Proliferation Assay, EKVX. As to conditions: Homo sapiens, 72 hr, Cell Titer Glo. How it is done: as §1
Experiment [1] relates to K562 Chronic Myelogenous leukemia cells. As to the kind of experiment: Cancer Proliferation Assay (3H-thymidine uptake), K562. As to conditions: Homo sapiens; K562, 3 days, 3H-TdR uptake. The procedure:
(§2) Flat-bottom 96-well microtiter tissue culture plates (Costar, Cambridge, Mass.) were used for the assay. Cultures were performed in replicates of 4 wells; each well contained 1×10^4 cells. Six concentrations of Compound A (ranging from 40 μg/mL to 100 ng/mL) were tested in the absence and presence of 10 ng/mL G-CSF, 100 ng/mL of TPO or 5 U/mL of EPO. Cells were also tested in medium alone, G-CSF alone, TPO alone, or EPO alone to establish 100% of control values. The final volume in each well was 200 μL. Plates were placed in a humidified 5% CO2 incubator at 37° C. for 3 days. Proliferation was measured by the uptake of tritiated thymidine (^3H-TdR) by pulsing wells with 1 μCi of ^3H-TdR for the final 18 hours of incubation, harvesting the plate on a Brandel 96-well cell harvester (Gaithersburg, Md.) and measuring radioactivity on the filter mats in a Wallac 1450 Microbeta TriLux scintillation counter (Turku, Finland). The effect of Compound A was determined by comparing the results of cells treated with test compound with control cells (100% of control).

A further experiment relates to NCI-H322M (NSCLC). As to the kind of experiment: Solid Tumor Cell Line Proliferation Assay, NCI-H322M. As to conditions: Homo sapiens, 72 hr, Cell Titer Glo. How it is done: as §1
In experiment [2] the test system is CCRF-CEM Lymphoblastic T cell leukemia cells. Briefly: Cancer Proliferation Assay (3H-thymidine uptake), CCRF-CEM. The conditions noted are these: Homo sapiens, 3 days, 3H-TdR uptake. How it is done: as §2
Experiment [3] concerns SR Immunoblastic Large Cell Leukemia cells. Briefly: Cancer Proliferation Assay (3H-thymidine uptake), SR. As to conditions: 3 days, 3H-TdR uptake. How it is done:
as §2

The subject of another experiment is HOP-62 (NSCLC). As to the kind of experiment: Solid Tumor Cell Line Proliferation Assay, HOP-62. As to conditions: Homo sapiens; HOP-62, 72 hr, Cell Titer Glo. How it is done: as §1
The test system of a further experiment is A549 (NSCLC). Briefly: Solid Tumor Cell Line Proliferation Assay, A549. The conditions noted are these: Homo sapiens; A549, 72 hr, Cell Titer Glo. The procedure:
as §1

The subject of experiment [4] is MOLT-4 Acute Lymphoblastic T cell leukemia cells. Briefly: Cancer Proliferation Assay (3H-thymidine uptake), MOLT-4. The conditions noted are these: Homo sapiens; MOLT-4, 3 days, 3H-TdR uptake. The procedure: as §2
In experiment [5] the test system is RPMI-8226 Plasmacytoma cells. As to the kind of experiment: Cancer Proliferation Assay (3H-thymidine uptake), RPMI-8226. The conditions noted are these: Homo sapiens; RPMI-8226, 3 days, 3H-TdR uptake. The procedure:
as §2

The test system of experiment [6] is Akt (Ser473) activation in washed human platelets. As to the kind of experiment: Activation of Akt in human platelets. The conditions noted are these: TPO 100 ng/mL; for Akt activation (phosphorylation), agent alone: 15 minutes alone, Compound A (SB) 10 mM, phosphorylation-specific antibodies, Blot 1. How it is done: Washed human platelets from healthy volunteers were treated with vehicle (V) [0.33% DMSO], 100 ng/mL TPO [recombinant human thrombopoietin obtained from R&D Systems, Inc., Minneapolis, Minn., USA, or SB (SB=Compound A in Blot 1) (10 mM) for 15 minutes alone, or 13 minutes alone followed by 2 minutes with 1 mM ADP (+ADP). Protein extracts were probed for Akt (Ser473) activation. Results are representative of 3 individual experiments.
Compound A was compared to TPO in human platelets through the examination of a signal transduction pathway known to be activated through TPOR [TPO receptor] stimulation; specifically, Pi3K/Akt pathway activation [Chen, J., et al., Blood, 86, 4054-4062 (1995); Kojima, H., et al., Thrombosis & Haemostassis, 74, 1541-1545 (1995); Ezumi, Y., et al., FEBS Letters, 374, 48-52 (1995)].

In experiment [7] the test system is HepG2 (Hepatocellular carcinoma). Briefly: Solid Tumor Cell Line Proliferation Assay, HepG2. As to conditions: Homo sapiens; HepG2, 72 hr, Cell Titer Glo.
Protocol: Cells in log phase growth were seeded in a 96-well plate at 2500 cells/well in 50 uL medium and incubated at 37° C., 5% CO2 overnight. […] Following a 72 hr incubation at 37° C., 5% CO2. The CellTiter-Glo Luminescent Cell Viability Assay (ProMega Corp) was performed according to the manufacturer's instructions. Briefly following a 30 min room temperature incubation 100 uL CELLTiter Glo reagent was added to each well and mixed for 2 minutes. Luminescence was recorded following a 10 minute room temperature incubation using a PerkinElmer Microbeta luminescence counter. IC50 was determined by EXCel Fit 4.2.1.
For the next experiment, the system named is NCI-H226 (NSCLC). As to the kind of experiment: Solid Tumor Cell Line Proliferation Assay, NCI-H226. As to conditions: Homo sapiens; NCI-H226, 72 hr, Cell Titer Glo. How it is done: as §1

≈ marks a conversion by molar mass, not a printed value.

With `CC1=NN(c2ccc(C)c(C)c2)C(=O)/C1=N\Nc1cccc(-c2cccc(C(=O)O)c2)c1O` [Compound A, 3′-[(2Z)-[1-(3,4-dimethylphenyl)-1,5-dihydro-3-methyl-5-oxo-4H-pyrazol-4-ylidene]hydrazino]-2′-hydroxy-[1,1′-biphenyl]-3-carboxylic acid], the IC50 in the experiment on NCI-H460 (NSCLC) was 5.7 µg/mL (≈ 12.9 µM); in the experiment with NCI-H522 (NSCLC), 5.9 µg/mL (≈ 13.3 µM); in the experiment with HepG2 cells it was roughly 6 µg/mL (≈ 13.6 µM); in the experiment on NCI-H23 (NSCLC), 13.9 µg/mL (≈ 31.4 µM); with HOP-92 (NSCLC), 13.5 µg/mL (≈ 30.5 µM); in the experiment on EKVX (NSCLC), 12.7 µg/mL (≈ 28.7 µM). The IC50 came to 1.8 µg/mL (≈ 4.07 µM) in [1]; 8.3 µg/mL (≈ 18.8 µM) in the experiment on NCI-H322M (NSCLC); 0.74 µg/mL (≈ 1.67 µM) in experiment [2]; 0.77 µg/mL (≈ 1.74 µM) in [3]; 10.6 µg/mL (≈ 24 µM) in the experiment on HOP-62 (NSCLC); 9.1 µg/mL (≈ 20.6 µM) in the experiment with A549 (NSCLC). In addition, the IC50 in experiment [4] was found to be 0.56 µg/mL (≈ 1.27 µM); in experiment [5] it was 5.9 µg/mL (≈ 13.3 µM); in experiment [7], 5.61 µg/mL (≈ 12.7 µM); in the experiment on NCI-H226 (NSCLC), 11 µg/mL (≈ 24.9 µM). Besides, in [6], the “Akt activation (phosphorylation), agent alone” value (“Akt activation … agent alone” below) was “no activation was observed”.
For “TPO: recombinant human thrombopoietin obtained from R&D Systems, Inc.”, the “Akt activation in combination with ADP (preincubation with agent)” value in experiment [6] (13 minutes alone followed by 2 minutes with ADP, Compound A 10 mM) was “significant enhancement of activation of Akt”. In experiment [6], the “Akt activation … agent alone” value is “significant Akt activation”.
With `Nc1ncnc2c1ncn2[C@@H]1O[C@H](COP(=O)(O)OP(=O)(O)O)[C@@H](O)[C@H]1O` [ADP, reference compound], the “Akt activation … agent alone” value in experiment [6] is on record as “no activation observed”.
